Results on three molecules are retold here after patent US9433217B2, “Methods and compositions for introduction of exogenous dsRNA into plant cells” (Syngenta Participations AG, priority 2011, dated 2016).

Format in all cases: in vivo
Series [1] relates to NtPDS transcript. In words: Silencing of NtPDS transcript in tobacco, qPCR and phenotype. Particulars: leaves of dsRNA treated tobacco plants. The protocol: The tobacco gene encoding phytoene desaturase was evaluated for silencing using dsRNA constructs in combination with BR. […] The NtPDS dsRNA molecule (SEQ ID NO 10:SEQ ID NO 11) used in this embodiment is a double stranded RNA version of SEQ ID NO 4.
Similar to Example 3, once germinated and grown for 3-4 weeks, three tobacco plants were chosen for treatment for either the dsRNA or the control formulation. Here, the control formulation contained BR and water alone. […] As in Examples 2 and 3, the silencing efficiencies were calculated and are shown in the table below, where dsPDS is dsRNA from NtPDS.
For orientation: Quantitative PCR measures a nucleic acid by following its amplification.

Series [2] relates to maize glutamine synthetase. Nature of the series: Silencing of maize glutamine synthetase, qPCR of leaf samples and phenotype. The conditions noted are these: dsRNA treated maize plants, 2-3 weeks after treatment. On the procedure:
The Zma-GS dsRNA molecule (SEQ ID NO 7:SEQ ID NO 8) used in this embodiment is a double stranded RNA version of SEQ ID NO 2. Methods for formulation of dsRNA and control solutions, plant growth conditions, and application of RNAi formulation were as described in the above example, with the exception that another control formulation was added with only Brassinosteroid at 0.1 micromolar.
Results were evaluated from leaf samples taken 2-3 weeks after treatment. Four plants were examined from each treatment group. […] Since glutamine synthetase is a natively expressed gene, qPCR analysis was performed to calculate silencing efficiency. qPCR was performed using the Applied Biosystems 7900HT Fast Real-Time PCR System. Silencing efficiency was calculated according to the publication Analysis of Relative Gene Expression Data Using Real-Time Quantitative PCR and the 2^−ΔΔCt Method. Methods (2001) 25:402-408.

For series [3], the system named is NtFtsH transcript. In words: Silencing of NtFtsH transcript in tobacco, qPCR and phenotype. The conditions noted are these: leaves of dsRNA treated tobacco plants. On the procedure:
The tobacco gene encoding Filamentation temperature-sensitive H (NtFtsH) protease was evaluated for silencing using dsRNA constructs in combination with BR. […] The NtFtsH protease dsRNA molecule (SEQ ID NO 9:SEQ ID NO 10) used in this embodiment is a double stranded version of SEQ ID NO. 3.
Once germinated, tobacco plants were transplanted to new soil and grown for an additional 3-4 weeks. Three tobacco plants were chosen for treatment for either the dsRNA or the control formulation. The treatments were applied using methods similar to those described in Example 2. Here, the control formulation contained ZsGreen dsRNA. […] As in Example 2, the silencing efficiencies were calculated and are shown in the table below, where dsNtFtsH is dsRNA from NtFtsH protease and dsZsGreen is the dsRNA of ZsGreen: […]

Regarding “dsPDS: NtPDS dsRNA, double stranded RNA version of SEQ ID NO 4”, the phenotype result in series [1] is reported as “bleaching phenotype was observed”.
“dsGS: Zma-GS dsRNA (SEQ ID NO 7:SEQ ID NO 8), double stranded RNA version of SEQ ID NO 2”: in series [2], the phenotype result is recorded as “bleaching was observed”.

B1: dsNtFtsH: NtFtsH protease dsRNA (SEQ ID NO 9:SEQ ID NO 10), double stranded version of SEQ ID NO. 3 (nucleic acid, listed as Nicotiana tabacum)
chain 1: CAAAUGGCAGUUGCACUUGGUGAAAGGGUUGCUGAGGAGGUUAUUUUUGGACAAGAUAACGUAACAACUGGGGCAUCUAACGAUUUCAUGCAAGUUUCACGAGUGGCAAGGCAGAUGGUUGAGAGAUUAGGGUUCAGCAAAAAGAUUGGACAAGUUGCCAUUGGAGGAGGUGGAGGAAAUCCUUUCCUAGGUCAACAGAUGUCAACCCAGAAAGACUACUCCAUGGCUACAGCCGAUGUGGUUGAUGCUGAAGUAAGGGAAUUGGUUGAAAGAGCAUAUGAAAGGGCAACAGAGAUUAUCACAACACACAUUGACAUCCUACACAAGCUUGCUCAGCUGUUGAUAGAGAAAGAAACUGUUGAUGGUGAAGAGUUCAUGAGCCUUUUCAUCGAUGG
chain 2: GUUUACCGUCAACGUGAACCACUUUCCCAACGACUCCUCCAAUAAAAACCUGUUCUAUUGCAUUGUUGACCCCGUAGAUUGCUAAAGUACGUUCAAAGUGCUCACCGUUCCGUCUACCAACUCUCUAAUCCCAAGUCGUUUUUCUAACCUGUUCAACGGUAACCUCCUCCACCUCCUUUAGGAAAGGAUCCAGUUGUCUACAGUUGGGUCUUUCUGAUGAGGUACCGAUGUCGGCUACACCAACUACGACUUCAUUCCCUUAACCAACUUUCUCGUAUACUUUCCCGUUGUCUCUAAUAGUGUUGUGUGUAACUGUAGGAUGUGUUCGAACGAGUCGACAACUAUCUCUUUCUUUGACAACUACCACUUCUCAAGUACUCGGAAAAGUAGCUACC
modifications: Sense strand of SEQIDNO3 (1)..(395); Complement of SEQIDNO9 (1)..(395)
As for B1, the phenotype result in series [3] is recorded as “bleaching phenotype was observed”.
